# In patent US11006600B2, “Rice cultivar designated ‘CL272’” (Board of Supervisors of Louisiana State University and …, priority 2016, dated 2021):
# Tested on: rice cultivar 'CL272'
# Test: Herbicide tolerance and susceptibility characteristics of rice variety 'CL272'
# Format: in vivo, Oryza sativa
# Settings: at levels of the herbicide that would normally inhibit the growth of a rice plant
# Description: Among others, the herbicide tolerance and susceptibility characteristics of ‘CL272’ include or are expected to include the following. These characteristics are in some cases based on actual observations to date, and in other cases reflect assumptions based on direct descent from ‘CL161’: […]
row,SMILES,response of 'CL272' rice to the herbicide (resistant / sensitive)
1,CCOC(=O)c1ccccc1S(=O)(=O)NC(=O)Nc1nc(Cl)cc(OC)n1 [chlorimuron ethyl],sensitive
2,COC(=O)c1sccc1S(=O)(=O)NC(=O)Nc1nc(C)nc(OC)n1 [thifensulfuron methyl],resistant
3,CC(C)C1(C)N=C(c2ncccc2C(=O)O)NC1=O (centres unmarked) [imazapyr],resistant
4,COCc1cnc(C2=NC(C)(C(C)C)C(=O)N2)c(C(=O)O)c1 (centres unmarked) [imazamox],resistant
5,CC(C)C1(C)N=C(c2nc3ccccc3cc2C(=O)O)NC1=O (centres unmarked) [imazaquin],resistant
6,CCS(=O)(=O)c1cccnc1S(=O)(=O)NC(=O)Nc1nc(OC)cc(OC)n1 [rimsulfuron],sensitive
7,CCc1cnc(C2=NC(C)(C(C)C)C(=O)N2)c(C(=O)O)c1 (centres unmarked) [imazethapyr],resistant
8,COC(=O)c1ccccc1S(=O)(=O)NC(=O)Nc1nc(C)cc(C)n1 [sulfometuron methyl],sensitive
9,Cc1cnc(C2=NC(=O)C(C)(C(C)C)N2)c(C(=O)O)c1 (centres unmarked) [imazapic],resistant
10,COc1cc(OC)nc(NC(=O)NS(=O)(=O)c2ncccc2C(=O)N(C)C)n1 [nicosulfuron],resistant
11,COC(=O)c1ccccc1S(=O)(=O)NC(=O)N(C)c1nc(C)nc(OC)n1 [tribenuron methyl],resistant
12,COC(=O)c1ccccc1S(=O)(=O)NC(=O)Nc1nc(C)nc(OC)n1 [metsulfuron methyl],resistant

# Same assay, conditions: in vivo
row,SMILES,"resistance of 'CL272' rice to imidazolinone herbicides, general statement"
1,COCc1cnc(C2=NC(C)(C(C)C)C(=O)N2)c(C(=O)O)c1 (centres unmarked) [imazamox],highly resistant
2,CCc1cnc(C2=NC(C)(C(C)C)C(=O)N2)c(C(=O)O)c1 (centres unmarked) [imazethapyr],highly resistant
